Experimental data as given in patent publication US11697648B2, “Fused pyrimidine pyridinone compounds as JAK inhibitors” (THERAVANCE BIOPHARMA R&D IP, LLC, priority 2019, dated 2023).

How the values were obtained:
JAK3 = JAK3 (Homo sapiens (Human), UniProt P52333); assay: Biochemical JAK3 kinase assay (LanthaScreen)
In short: (§1)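 GST-JAK + GFP-STAT1 peptide, HEPES pH 7.5/MgCl2/EGTA/Brij-35 buffer; cpd preincubation 1 h RT; ATP start, 1 h RT; stop with 10 mM EDTA + 2 nM Tb-anti-pSTAT1; TR-FRET 520/495. 4-parameter IC50 → pKi (Cheng-Prusoff).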

[1] = test system: IL-2 stimulated STAT5 phosphorylation in Tall-1 human T cell line (JAK3); assay: Cellular JAK3 potency assay: inhibition of IL-2 stimulated pSTAT5 in Tall-1 T cells; format: cell-based
In short: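 Tall-1 cells, 45,000 per well, preincubated 1 hour with compound at 37 °C, then stimulated 30 minutes with IL-2 at 300 ng/ml final. pSTAT5 (Tyr694/699) in lysates quantified by AlphaLISA SureFire Ultra. pIC50 derived from inhibition curves, given as mean with SD.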

JAK1 = JAK1 (Homo sapiens (Human), UniProt P23458); assay: Biochemical JAK1 kinase assay (LanthaScreen)
Chain of JAK1 (P23458 whole entry): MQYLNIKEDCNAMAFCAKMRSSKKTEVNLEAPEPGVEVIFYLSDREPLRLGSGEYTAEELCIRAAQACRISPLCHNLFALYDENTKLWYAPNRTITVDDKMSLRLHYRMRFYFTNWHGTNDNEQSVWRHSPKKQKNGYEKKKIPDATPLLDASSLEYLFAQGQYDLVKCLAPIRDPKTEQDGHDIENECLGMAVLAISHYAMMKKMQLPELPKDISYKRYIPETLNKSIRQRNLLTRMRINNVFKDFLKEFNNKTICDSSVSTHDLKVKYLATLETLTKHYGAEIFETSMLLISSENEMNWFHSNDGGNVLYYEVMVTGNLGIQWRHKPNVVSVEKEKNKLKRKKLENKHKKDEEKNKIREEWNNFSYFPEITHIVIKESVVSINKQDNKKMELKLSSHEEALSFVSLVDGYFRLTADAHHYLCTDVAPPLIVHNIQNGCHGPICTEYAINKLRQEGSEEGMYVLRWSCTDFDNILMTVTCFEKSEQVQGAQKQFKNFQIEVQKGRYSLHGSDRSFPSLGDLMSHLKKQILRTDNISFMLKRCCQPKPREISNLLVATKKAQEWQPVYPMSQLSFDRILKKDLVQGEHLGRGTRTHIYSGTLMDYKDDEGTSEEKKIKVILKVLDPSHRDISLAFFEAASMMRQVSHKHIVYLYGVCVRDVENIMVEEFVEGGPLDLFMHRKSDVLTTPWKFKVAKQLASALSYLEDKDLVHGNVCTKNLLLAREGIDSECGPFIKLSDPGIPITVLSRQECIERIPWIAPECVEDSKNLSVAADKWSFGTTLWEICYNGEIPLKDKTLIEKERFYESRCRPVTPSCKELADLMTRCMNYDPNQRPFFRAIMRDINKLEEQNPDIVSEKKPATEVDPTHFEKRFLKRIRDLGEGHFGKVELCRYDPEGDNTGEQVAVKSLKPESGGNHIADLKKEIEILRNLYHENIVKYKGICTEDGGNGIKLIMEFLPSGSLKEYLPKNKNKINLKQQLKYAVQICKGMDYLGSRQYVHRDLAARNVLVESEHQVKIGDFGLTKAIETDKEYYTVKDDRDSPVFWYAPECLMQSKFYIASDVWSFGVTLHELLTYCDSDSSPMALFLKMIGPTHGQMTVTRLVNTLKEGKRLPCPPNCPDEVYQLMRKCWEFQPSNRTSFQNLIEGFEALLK
In short: as §1

JAK2 = JAK2 (Homo sapiens (Human), UniProt O60674); assay: Biochemical JAK2 kinase assay (LanthaScreen)
Chain of JAK2 (O60674 whole entry): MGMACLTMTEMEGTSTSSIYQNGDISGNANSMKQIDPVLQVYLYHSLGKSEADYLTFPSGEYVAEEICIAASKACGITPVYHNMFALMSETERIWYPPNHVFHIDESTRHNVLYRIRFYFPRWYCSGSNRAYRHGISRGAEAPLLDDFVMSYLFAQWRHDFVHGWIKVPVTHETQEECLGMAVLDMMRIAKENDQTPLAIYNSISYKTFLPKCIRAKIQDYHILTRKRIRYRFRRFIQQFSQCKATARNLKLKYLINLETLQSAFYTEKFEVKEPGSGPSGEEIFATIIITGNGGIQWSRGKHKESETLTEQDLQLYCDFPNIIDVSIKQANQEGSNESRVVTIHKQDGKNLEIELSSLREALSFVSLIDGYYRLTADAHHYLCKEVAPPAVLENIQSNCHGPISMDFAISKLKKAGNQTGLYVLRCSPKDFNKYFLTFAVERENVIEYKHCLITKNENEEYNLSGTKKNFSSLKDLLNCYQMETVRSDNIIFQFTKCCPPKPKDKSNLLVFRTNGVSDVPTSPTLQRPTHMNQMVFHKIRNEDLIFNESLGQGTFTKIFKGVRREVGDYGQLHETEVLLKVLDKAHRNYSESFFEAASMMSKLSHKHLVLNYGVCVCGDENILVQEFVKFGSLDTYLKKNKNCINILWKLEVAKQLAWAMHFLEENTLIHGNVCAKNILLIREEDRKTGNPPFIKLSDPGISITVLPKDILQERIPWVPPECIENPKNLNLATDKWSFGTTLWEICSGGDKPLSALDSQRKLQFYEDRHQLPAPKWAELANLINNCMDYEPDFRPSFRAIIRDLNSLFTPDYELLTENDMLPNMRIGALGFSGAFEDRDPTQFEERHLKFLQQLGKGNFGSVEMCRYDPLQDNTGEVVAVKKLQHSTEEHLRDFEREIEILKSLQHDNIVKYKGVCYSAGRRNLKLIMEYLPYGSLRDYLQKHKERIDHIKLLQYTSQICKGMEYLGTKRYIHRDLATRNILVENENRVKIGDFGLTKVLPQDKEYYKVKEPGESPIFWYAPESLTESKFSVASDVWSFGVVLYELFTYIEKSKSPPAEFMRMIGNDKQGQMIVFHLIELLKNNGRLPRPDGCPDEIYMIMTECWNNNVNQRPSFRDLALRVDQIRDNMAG
In short: as §1

Tyk2 = Tyk2 (Homo sapiens (Human), UniProt P29597); assay: Biochemical Tyk2 kinase assay (LanthaScreen)
Chain of Tyk2 (P29597 whole entry): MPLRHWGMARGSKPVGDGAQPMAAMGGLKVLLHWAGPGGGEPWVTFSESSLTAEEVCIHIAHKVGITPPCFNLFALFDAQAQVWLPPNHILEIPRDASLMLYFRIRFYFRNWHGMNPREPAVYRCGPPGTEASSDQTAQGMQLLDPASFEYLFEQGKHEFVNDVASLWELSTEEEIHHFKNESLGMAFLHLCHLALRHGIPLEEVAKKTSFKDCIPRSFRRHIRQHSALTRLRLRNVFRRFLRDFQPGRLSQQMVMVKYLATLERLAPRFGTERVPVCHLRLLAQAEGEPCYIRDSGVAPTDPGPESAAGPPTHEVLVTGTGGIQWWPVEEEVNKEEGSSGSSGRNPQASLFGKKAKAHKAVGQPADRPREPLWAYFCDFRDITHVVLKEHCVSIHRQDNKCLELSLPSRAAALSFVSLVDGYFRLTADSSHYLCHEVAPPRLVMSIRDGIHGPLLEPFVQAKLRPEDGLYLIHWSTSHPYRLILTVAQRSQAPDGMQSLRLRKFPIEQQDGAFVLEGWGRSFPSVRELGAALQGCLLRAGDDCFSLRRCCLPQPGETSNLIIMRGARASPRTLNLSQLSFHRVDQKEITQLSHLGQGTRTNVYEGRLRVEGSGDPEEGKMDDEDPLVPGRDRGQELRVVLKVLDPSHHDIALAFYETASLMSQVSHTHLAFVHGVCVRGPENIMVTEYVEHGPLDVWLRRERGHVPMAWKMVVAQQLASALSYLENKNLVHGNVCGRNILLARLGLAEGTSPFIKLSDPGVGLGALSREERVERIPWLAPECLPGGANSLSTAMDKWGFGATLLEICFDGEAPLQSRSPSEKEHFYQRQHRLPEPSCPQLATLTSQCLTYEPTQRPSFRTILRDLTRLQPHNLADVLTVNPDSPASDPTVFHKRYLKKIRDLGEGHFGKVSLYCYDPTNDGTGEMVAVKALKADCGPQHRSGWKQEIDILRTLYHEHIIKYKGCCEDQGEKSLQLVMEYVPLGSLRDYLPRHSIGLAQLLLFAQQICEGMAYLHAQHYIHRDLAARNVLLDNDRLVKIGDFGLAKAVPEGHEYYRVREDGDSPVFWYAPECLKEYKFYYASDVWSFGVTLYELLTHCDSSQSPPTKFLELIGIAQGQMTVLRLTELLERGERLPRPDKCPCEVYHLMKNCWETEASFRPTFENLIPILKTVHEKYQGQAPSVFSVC
In short: as §1

[2] = selectivity JAK3 over JAK1, difference of pKi
[3] = IL-2 stimulated pSTAT5, Tall-1 T cells
[4] = selectivity, difference of pKi values
[5] = IL-2 stimulated pSTAT5 in Tall-1 T cells

Chain of JAK3 (P52333 whole entry): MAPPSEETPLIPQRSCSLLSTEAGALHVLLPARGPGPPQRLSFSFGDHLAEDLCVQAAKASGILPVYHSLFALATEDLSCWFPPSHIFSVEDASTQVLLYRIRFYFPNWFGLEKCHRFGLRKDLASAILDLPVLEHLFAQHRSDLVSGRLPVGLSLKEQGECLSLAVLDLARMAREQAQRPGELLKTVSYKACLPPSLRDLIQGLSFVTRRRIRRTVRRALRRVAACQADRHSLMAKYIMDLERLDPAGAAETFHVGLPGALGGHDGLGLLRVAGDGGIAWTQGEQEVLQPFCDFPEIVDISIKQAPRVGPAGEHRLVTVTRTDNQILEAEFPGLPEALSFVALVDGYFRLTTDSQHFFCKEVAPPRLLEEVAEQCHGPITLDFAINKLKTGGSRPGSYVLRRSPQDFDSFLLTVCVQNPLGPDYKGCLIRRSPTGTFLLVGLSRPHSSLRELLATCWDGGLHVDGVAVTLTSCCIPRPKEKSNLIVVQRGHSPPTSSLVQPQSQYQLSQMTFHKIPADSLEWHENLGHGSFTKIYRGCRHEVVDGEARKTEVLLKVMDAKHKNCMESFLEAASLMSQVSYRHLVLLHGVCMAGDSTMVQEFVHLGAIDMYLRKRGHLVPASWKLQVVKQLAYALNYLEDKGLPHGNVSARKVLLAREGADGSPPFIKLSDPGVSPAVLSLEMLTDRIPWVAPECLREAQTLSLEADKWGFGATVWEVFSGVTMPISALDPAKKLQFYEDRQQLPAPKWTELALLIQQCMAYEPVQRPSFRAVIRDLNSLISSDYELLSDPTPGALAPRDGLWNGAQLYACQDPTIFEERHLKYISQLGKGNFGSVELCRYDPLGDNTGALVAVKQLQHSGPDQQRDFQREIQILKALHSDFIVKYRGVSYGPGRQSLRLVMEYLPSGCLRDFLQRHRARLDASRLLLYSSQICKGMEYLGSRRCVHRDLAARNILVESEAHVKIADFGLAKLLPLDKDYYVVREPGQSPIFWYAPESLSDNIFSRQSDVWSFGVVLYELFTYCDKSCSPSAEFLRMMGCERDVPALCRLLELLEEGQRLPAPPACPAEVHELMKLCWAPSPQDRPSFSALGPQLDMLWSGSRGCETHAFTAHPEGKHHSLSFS

| Compound | JAK 3 (pKi) (JAK3) | JAK3 (pKi)-JAK1 (pKi) (JAK3; [2]) | Tall-1 (pIC50) [1, 3] | JAK 1 (pKi) (JAK1) | JAK 2 (pKi) (JAK2) | Tyk 2 (pKi) (Tyk2) | JAK3 (pKi)-JAK1 (pKi) (JAK3; [4]) | Tall-1 (pIC50) [1, 5] |
| --- | --- | --- | --- | --- | --- | --- | --- | --- |
| C=CC(=O)N1CCN(CCn2c(=O)ccc3cnc(Nc4ccc(N5CCN(S(C)(=O)=O)CC5)cc4)nc32)[C@@H](C)C1 [Example 176] | A (A represents a pKi value≥10 (Ki≤0.1 nM)) | A (A represents a value of 3 or above) | B (B represents a pC50 value between 6.7 (included) and 7.5 (IC50 between 200 nM and 32 nM)) | E (E represents a pKi value of 7 or below (Ki of 100 nM or above)) | E (E represents a pKi value of 7 or below (Ki of 100 nM or above)) | E (E represents a pKi value of 7 or below (Ki of 100 nM or above)) | – | – |
| C=CC(=O)N1CC(CCn2c(=O)ccc3cnc(Nc4ccc(N5CCN(C(C)=O)CC5)c(Cl)c4)nc32)C1 [Example 182] | A (A represents a pKi value≥10 (Ki≤0.1 nM)) | A (A represents a value of 3 or above) | B (B represents a pC50 value between 6.7 (included) and 7.5 (IC50 between 200 nM and 32 nM)) | E (E represents a pKi value of 7 or below (Ki of 100 nM or above)) | E (E represents a pKi value of 7 or below (Ki of 100 nM or above)) | E (E represents a pKi value of 7 or below (Ki of 100 nM or above)) | – | – |
| C=CC(=O)N1CCN(CCn2c(=O)ccc3cnc(Nc4ccc(N5CCN(C)[C@@H](C)C5)cc4)nc32)[C@@H](C)C1 [Example 251] | B (B represents pKi value between 9 and 10 (Ki between 1 nM and 0.1 nM)) | – | – | E (E represents a pKi value of 7 or below (Ki of 100 nM or above)) | E (E represents a pKi value of 7 or below (Ki of 100 nM or above)) | E (E represents a pKi value of 7 or below (Ki of 100 nM or above)) | A (A represents a value of 3 or above) | B (B represents a pC50 value between 6.7 (included) and 7.5 (IC50 between 200 nM and 32 nM)) |
| C=CC(=O)N1CC(CCn2c(=O)ccc3cnc(Nc4ccc(OCCO)cc4)nc32)C1 [Example 223] | A (A represents a pKi value≥10 (Ki≤0.1 nM)) | A (A represents a value of 3 or above) | B (B represents a pC50 value between 6.7 (included) and 7.5 (IC50 between 200 nM and 32 nM)) | E (E represents a pKi value of 7 or below (Ki of 100 nM or above)) | E (E represents a pKi value of 7 or below (Ki of 100 nM or above)) | E (E represents a pKi value of 7 or below (Ki of 100 nM or above)) | – | – |
| C=CC(=O)N1CC(CCn2c(=O)ccc3cnc(Nc4cccc(N5CCN(S(=O)(=O)C6COC6)CC5)c4)nc32)C1 [Example 129] | A (A represents a pKi value≥10 (Ki≤0.1 nM)) | A (A represents a value of 3 or above) | B (B represents a pC50 value between 6.7 (included) and 7.5 (IC50 between 200 nM and 32 nM)) | E (E represents a pKi value of 7 or below (Ki of 100 nM or above)) | E (E represents a pKi value of 7 or below (Ki of 100 nM or above)) | E (E represents a pKi value of 7 or below (Ki of 100 nM or above)) | – | – |
| C=CC(=O)N1CCN(CCn2c(=O)ccc3cnc(Nc4cnn(C)c4)nc32)[C@@H](CCC)C1 [Example 158] | B (B represents pKi value between 9 and 10 (Ki between 1 nM and 0.1 nM)) | A (A represents a value of 3 or above) | C (C represents a pIC50 value between 6 and 6.7 (IC50 between 1 μM and 200 nM)) | E (E represents a pKi value of 7 or below (Ki of 100 nM or above)) | E (E represents a pKi value of 7 or below (Ki of 100 nM or above)) | E (E represents a pKi value of 7 or below (Ki of 100 nM or above)) | – | – |
| C=CC(=O)N1CC(CCn2c(=O)ccc3cnc(Nc4ccc(N5CCN(C(C)=O)CC5)c(F)c4)nc32)C1 [Example 181] | B (B represents pKi value between 9 and 10 (Ki between 1 nM and 0.1 nM)) | A (A represents a value of 3 or above) | B (B represents a pC50 value between 6.7 (included) and 7.5 (IC50 between 200 nM and 32 nM)) | E (E represents a pKi value of 7 or below (Ki of 100 nM or above)) | E (E represents a pKi value of 7 or below (Ki of 100 nM or above)) | E (E represents a pKi value of 7 or below (Ki of 100 nM or above)) | – | – |
| C=CC(=O)N1CC(CCn2c(=O)ccc3cnc(Nc4cnn(C(C)(C)COC)c4)nc32)C1 [Example 58] | B (B represents pKi value between 9 and 10 (Ki between 1 nM and 0.1 nM)) | A (A represents a value of 3 or above) | B (B represents a pC50 value between 6.7 (included) and 7.5 (IC50 between 200 nM and 32 nM)) | E (E represents a pKi value of 7 or below (Ki of 100 nM or above)) | E (E represents a pKi value of 7 or below (Ki of 100 nM or above)) | E (E represents a pKi value of 7 or below (Ki of 100 nM or above)) | – | – |
| C=CC(=O)N1CCN(CCn2c(=O)ccc3cnc(Nc4cnn(-c5ccccc5)c4)nc32)[C@@H](CC)C1 [Example 195] | B (B represents pKi value between 9 and 10 (Ki between 1 nM and 0.1 nM)) | A (A represents a value of 3 or above) | B (B represents a pC50 value between 6.7 (included) and 7.5 (IC50 between 200 nM and 32 nM)) | E (E represents a pKi value of 7 or below (Ki of 100 nM or above)) | E (E represents a pKi value of 7 or below (Ki of 100 nM or above)) | E (E represents a pKi value of 7 or below (Ki of 100 nM or above)) | – | – |
| C=CC(=O)N1CCN(CCn2c(=O)ccc3cnc(Nc4ccc(C5CCN(C)CC5)cc4)nc32)CC1 [Example 87] | B (B represents pKi value between 9 and 10 (Ki between 1 nM and 0.1 nM)) | A (A represents a value of 3 or above) | A (A represents a pIC50 value≥7.5 (IC50≤32 nM)) | E (E represents a pKi value of 7 or below (Ki of 100 nM or above)) | E (E represents a pKi value of 7 or below (Ki of 100 nM or above)) | E (E represents a pKi value of 7 or below (Ki of 100 nM or above)) | – | – |
| C=CC(=O)N1CCN(C(C)(C)Cn2c(=O)ccc3cnc(Nc4ccc(N5CCN(C(C)=O)CC5)cc4)nc32)CC1 [Example 200] | C (C represents a pKi value between 8 and 9 (Ki between 10 nM and 1 nM)) | B (B represents a value of 2.5 to 3) | C (C represents a pIC50 value between 6 and 6.7 (IC50 between 1 μM and 200 nM)) | E (E represents a pKi value of 7 or below (Ki of 100 nM or above)) | E (E represents a pKi value of 7 or below (Ki of 100 nM or above)) | E (E represents a pKi value of 7 or below (Ki of 100 nM or above)) | – | – |
| C=CC(=O)N1CCN(CCn2c(=O)ccc3cnc(Nc4ccc(N5C[C@@H](C)N(C)[C@@H](C)C5)cc4)nc32)[C@@H](C)C1 [Example 249] | B (B represents pKi value between 9 and 10 (Ki between 1 nM and 0.1 nM)) | – | – | E (E represents a pKi value of 7 or below (Ki of 100 nM or above)) | E (E represents a pKi value of 7 or below (Ki of 100 nM or above)) | E (E represents a pKi value of 7 or below (Ki of 100 nM or above)) | A (A represents a value of 3 or above) | A (A represents a pIC50 value≥7.5 (IC50≤32 nM)) |
| C=CC(=O)N1CC(CCn2c(=O)ccc3cnc(Nc4ccc(N5CCN(C(=O)CC(C)C)CC5)cc4)nc32)C1 [Example 103] | A (A represents a pKi value≥10 (Ki≤0.1 nM)) | A (A represents a value of 3 or above) | A (A represents a pIC50 value≥7.5 (IC50≤32 nM)) | E (E represents a pKi value of 7 or below (Ki of 100 nM or above)) | E (E represents a pKi value of 7 or below (Ki of 100 nM or above)) | E (E represents a pKi value of 7 or below (Ki of 100 nM or above)) | – | – |
| C=CC(=O)N1CCN(CCn2c(=O)ccc3cnc(Nc4ccc(N5CCN(C)CC5)nc4)nc32)CC1 [Example 37] | B (B represents pKi value between 9 and 10 (Ki between 1 nM and 0.1 nM)) | A (A represents a value of 3 or above) | B (B represents a pC50 value between 6.7 (included) and 7.5 (IC50 between 200 nM and 32 nM)) | E (E represents a pKi value of 7 or below (Ki of 100 nM or above)) | E (E represents a pKi value of 7 or below (Ki of 100 nM or above)) | E (E represents a pKi value of 7 or below (Ki of 100 nM or above)) | – | – |
| C=CC(=O)N1CCN(CCn2c(=O)ccc3cnc(Nc4cnn(CCOCC)c4)nc32)[C@@H](CC)C1 [Example 221] | B (B represents pKi value between 9 and 10 (Ki between 1 nM and 0.1 nM)) | A (A represents a value of 3 or above) | B (B represents a pC50 value between 6.7 (included) and 7.5 (IC50 between 200 nM and 32 nM)) | E (E represents a pKi value of 7 or below (Ki of 100 nM or above)) | E (E represents a pKi value of 7 or below (Ki of 100 nM or above)) | E (E represents a pKi value of 7 or below (Ki of 100 nM or above)) | – | – |
